Experimental data from ChEMBL document CHEMBL4049391, “Vicinal diaryl azole-based urea derivatives as potential cholesterol lowering agents acting through inhibition of SOAT enzymes” (Eur J Med Chem, 2017).
Active and inactive are the calls of the source. No cut-off for these calls is given here.

Columns and labels:
Rattus norvegicus [1] = test: Acute toxicity in Wistar rat assessed as change in grooming behavior at 2000 mg/kg, po administered as single dose measured at 6 hrs post dose; type: organism-based; conditions: in vivo
Rattus norvegicus [2] = test: Anti-atherosclerosis activity in high cholesterol diet-induced Wistar rat atherogenesis model assessed as atherogenic index at 10 mg/kg, po administered once daily measured after 4 weeks (reference value: 19.59 +/- 5.8); type: functional
Rattus norvegicus [3] = test: Acute toxicity in Wistar rat assessed as hematological changes at 60 mg/kg, po administered as repeated dosing for 28 days; type: organism-based; conditions: in vivo, 672 h
Rattus norvegicus [4] = test: (§1) Anti-atherosclerosis activity in high cholesterol diet-induced Wistar rat atherogenesis model assessed as reduction in fatty streak formation in thoracic aorta at 30 mg/kg, po administered once daily measured after 4 weeks by Sudan red 4 staining based photographic method; type: functional, organism-based
Rattus norvegicus [5] = test: Anti-atherosclerosis activity in po dosed high cholesterol diet-induced Wistar rat atherogenesis model assessed as increase in HDL-cholesterol level administered once daily measured after 4 weeks; type: functional, organism-based
Rattus norvegicus [6] = test: Anti-atherosclerosis activity in high cholesterol diet-induced Wistar rat atherogenesis model assessed as atherogenic index at 30 mg/kg, po administered once daily measured after 4 weeks (reference value: 19.59 +/- 5.8); type: functional
Rattus norvegicus [7] = test: Anti-atherosclerosis activity in high cholesterol diet-induced Wistar rat atherogenesis model assessed as reduction in VLDL-cholesterol level at 10 to 30 mg/kg, po administered once daily measured after 4 weeks; type: functional, organism-based
Rattus norvegicus [8] = test: Acute toxicity in Wistar rat assessed as macroscopic lesions in lung at 2000 mg/kg, po administered as single dose measured up to 14 days; type: organism-based; conditions: in vivo, 336 h
Rattus norvegicus [9] = test: Toxicity in Wistar rat assessed as adrenal toxicity at 10 to 30 mg/kg, po administered once daily measured after 4 weeks; type: organism-based; conditions: in vivo, 672 h
Rattus norvegicus [10] = test: Anti-atherosclerosis activity in high cholesterol diet-induced Wistar rat atherogenesis model assessed as reduction in LDL-cholesterol level at 30 mg/kg, po administered once daily measured after 4 weeks; type: functional, organism-based
Rattus norvegicus [11] = test: Toxicity in Wistar rat assessed as cutaneous toxicity at 10 to 30 mg/kg, po administered once daily measured after 4 weeks; type: organism-based; conditions: in vivo, 672 h
Rattus norvegicus [12] = test: Acute toxicity in Wistar rat assessed as change in body weight at 60 mg/kg, po administered as repeated dosing for 28 days; type: organism-based; conditions: in vivo, 672 h
Rattus norvegicus [13] = test: Acute toxicity in Wistar rat assessed as changes in adrenal gland shape at 2000 mg/kg, po administered as single dose measured up to 14 days; type: organism-based; conditions: in vivo, 336 h
Rattus norvegicus [14] = test: Acute toxicity in Wistar rat assessed as macroscopic lesions in spleen at 2000 mg/kg, po administered as single dose measured up to 14 days; type: organism-based; conditions: in vivo, 336 h
[15] = Inhibition of rat microsomal SOAT assessed as reduction in cholesteryl oleate formation from oleoyl co-enzyme A pretreated for 15 mins followed by oleoyl co-enzyme A addition after 10 mins by HPTLC method
Rattus norvegicus [16] = test: Toxicity in Wistar rat assessed as effect on body weight at 10 mg/kg, po administered once daily measured after 4 weeks (reference value: 290.3 +/- 8.1 g); type: organism-based; conditions: in vivo, 672 h
Rattus norvegicus [17] = test: Anti-atherosclerosis activity in high cholesterol diet-induced Wistar rat atherogenesis model assessed as reduction in triglyceride level at 10 to 30 mg/kg, po administered once daily measured after 4 weeks; type: functional, organism-based
Rattus norvegicus [18] = test: Acute toxicity in Wistar rat assessed as effect on gastrointestinal tract at 2000 mg/kg, po administered as single dose measured up to 14 days; type: organism-based; conditions: in vivo, 336 h
Rattus norvegicus [19] = test: Acute toxicity in Wistar rat assessed as changes in eyes at 2000 mg/kg, po administered as single dose measured up to 14 days; type: organism-based; conditions: in vivo, 336 h
Rattus norvegicus [20] = test: Anti-atherosclerosis activity in high cholesterol diet-induced Wistar rat atherogenesis model assessed as reduction in lumenal lipid plaque formation in aortic roots at 10 to 30 mg/kg, po administered once daily measured after 4 weeks by Sudan red 4 staining based photographic method; type: functional, organism-based
Rattus norvegicus [21] = test: Acute toxicity in Wistar rat assessed as effect on breathing at 2000 mg/kg, po administered as single dose measured up to 14 days; type: organism-based; conditions: in vivo, 336 h
Rattus norvegicus [22] = species on record: Rattus norvegicus; test: Inhibition of rat microsomal SOAT assessed as reduction in cholesteryl oleate formation from oleoyl co-enzyme A at 10 uM pretreated for 15 mins followed by oleoyl co-enzyme A addition measured after 10 mins by HPTLC method relative to control
Rattus norvegicus [23] = test: Acute toxicity in Wistar rat assessed as effect on viscera at 2000 mg/kg, po administered as single dose measured up to 14 days; type: organism-based; conditions: in vivo, 336 h
Rattus norvegicus [24] = test: Acute toxicity in Wistar rat assessed as effect on food intake at 60 mg/kg, po administered as repeated dosing for 28 days; type: organism-based; conditions: in vivo, 672 h
Rattus norvegicus [25] = test: Acute toxicity in Wistar rat assessed as macroscopic lesions in brain at 2000 mg/kg, po administered as single dose measured up to 14 days; type: organism-based; conditions: in vivo, 336 h
Rattus norvegicus [26] = test: Acute toxicity in Wistar rat assessed as shrinkage of adrenal gland at 2000 mg/kg, po administered as single dose measured up to 14 days; type: organism-based; conditions: in vivo, 336 h
Rattus norvegicus [27] = test: Acute toxicity in Wistar rat assessed as macroscopic lesions in adrenal gland at 2000 mg/kg, po administered as single dose measured up to 14 days; type: organism-based; conditions: in vivo, 336 h
Rattus norvegicus [28] = test: Toxicity in Wistar rat assessed as effect on body weight at 30 mg/kg, po administered once daily measured after 4 weeks (reference value: 290.3 +/- 8.1 g); type: organism-based; conditions: in vivo, 672 h
Rattus norvegicus [29] = test: Acute toxicity in Wistar rat assessed as effect on normal behavior at 60 mg/kg, po administered as repeated dosing for 28 days; type: organism-based; conditions: in vivo, 672 h
Rattus norvegicus [30] = test: Acute toxicity in Wistar rat assessed as effect on locomotion at 2000 mg/kg, po administered as single dose measured up to 14 days; type: organism-based; conditions: in vivo, 336 h
Rattus norvegicus [31] = test: Acute toxicity in Wistar rat assessed as effect on water intake at 2000 mg/kg, po administered as single dose measured at 6 hrs post dose; type: organism-based; conditions: in vivo
Rattus norvegicus [32] = test: Acute toxicity in Wistar rat assessed as effect on urinary excretion at 60 mg/kg, po administered as repeated dosing for 28 days; type: organism-based; conditions: in vivo, 672 h
[33] = Acute toxicity in Wistar rat assessed as mortality administered orally as single dose measured up to 14 days; conditions: in vivo, po, read-out: CD50
Rattus norvegicus [34] = test: Acute toxicity in Wistar rat assessed as macroscopic lesions in heart at 2000 mg/kg, po administered as single dose measured up to 14 days; type: organism-based; conditions: in vivo, 336 h
Rattus norvegicus [35] = test: Acute toxicity in Wistar rat assessed as changes in adrenal gland size at 2000 mg/kg, po administered as single dose measured up to 14 days; type: organism-based; conditions: in vivo, 336 h
Rattus norvegicus [36] = test: as §1, with “lipid accumulation lesion area” for “reduction in fatty streak formation”, “10” for “30”, “method (reference value: 22.35 +/- 7.9%)” for “method”; type: functional
Rattus norvegicus [37] = test: Acute toxicity in Wistar rat assessed as cutaneous xanthomatosis at 60 mg/kg, po administered as repeated dosing for 42 days; type: organism-based; conditions: in vivo, 1008 h
Rattus norvegicus [38] = test: Anti-atherosclerosis activity in high cholesterol diet-induced Wistar rat atherogenesis model assessed as reduction in fatty streak formation in thoracic aorta at 10 mg/kg, po administered once daily measured after 4 weeks by Sudan red 4 staining based photographic method; type: functional, organism-based

CCCCNC(=O)Nc1ccc(-c2sc(C)nc2-c2ccc(C)cc2)cc1
Activity (Rattus norvegicus [1]): Non-Toxic | Activity_index (Rattus norvegicus [2]): 7.55 | Activity (Rattus norvegicus [3]): Non-Toxic | Activity (Rattus norvegicus [4]): Active | Activity (Rattus norvegicus [5]): Dose-dependent effect | Activity_index (Rattus norvegicus [6]): 1.82 | Activity (Rattus norvegicus [7]): inactive | Activity (Rattus norvegicus [8]): Non-Toxic | Activity (Rattus norvegicus [9]): Non-Toxic | Activity (Rattus norvegicus [10]): Active | Activity (Rattus norvegicus [11]): Non-Toxic | Activity (Rattus norvegicus [12]): Non-Toxic | Activity (Rattus norvegicus [13]): Non-Toxic | Activity (Rattus norvegicus [14]): Non-Toxic | IC50 [15]: 2430 nM | pIC50 [15]: 5.614 | Activity (Rattus norvegicus [16]): 294 g | Activity (Rattus norvegicus [17]): inactive | Activity (Rattus norvegicus [18]): Non-Toxic | Activity (Rattus norvegicus [19]): Non-Toxic | Activity (Rattus norvegicus [20]): Active | Activity (Rattus norvegicus [21]): Non-Toxic | inhibition (Rattus norvegicus [22]): 64.9% | Activity (Rattus norvegicus [23]): Non-Toxic | Activity (Rattus norvegicus [24]): Non-Toxic | Activity (Rattus norvegicus [25]): Non-Toxic | Activity (Rattus norvegicus [26]): Non-Toxic | Activity (Rattus norvegicus [27]): Non-Toxic | Activity (Rattus norvegicus [28]): 299 g | Activity (Rattus norvegicus [29]): Non-Toxic | Activity (Rattus norvegicus [30]): Non-Toxic | Activity (Rattus norvegicus [31]): Non-Toxic | Activity (Rattus norvegicus [32]): Non-Toxic | LD50 at 336 h [33]: > 2000 mg/kg | Activity (Rattus norvegicus [34]): Non-Toxic | Activity (Rattus norvegicus [35]): Non-Toxic | Activity (Rattus norvegicus [36]): 16.21% | Activity (Rattus norvegicus [37]): Non-Toxic | Activity (Rattus norvegicus [38]): inactive
